This is an account of results in ChEMBL document CHEMBL3588776, “Inhibitors of the human neuraminidase enzymes” (Medchemcomm, 2014).

For the assay, the target named is T1, Sialidase-3 (Homo sapiens, UniProt Q9UQ49).
T1 sequence (Q9UQ49 whole entry): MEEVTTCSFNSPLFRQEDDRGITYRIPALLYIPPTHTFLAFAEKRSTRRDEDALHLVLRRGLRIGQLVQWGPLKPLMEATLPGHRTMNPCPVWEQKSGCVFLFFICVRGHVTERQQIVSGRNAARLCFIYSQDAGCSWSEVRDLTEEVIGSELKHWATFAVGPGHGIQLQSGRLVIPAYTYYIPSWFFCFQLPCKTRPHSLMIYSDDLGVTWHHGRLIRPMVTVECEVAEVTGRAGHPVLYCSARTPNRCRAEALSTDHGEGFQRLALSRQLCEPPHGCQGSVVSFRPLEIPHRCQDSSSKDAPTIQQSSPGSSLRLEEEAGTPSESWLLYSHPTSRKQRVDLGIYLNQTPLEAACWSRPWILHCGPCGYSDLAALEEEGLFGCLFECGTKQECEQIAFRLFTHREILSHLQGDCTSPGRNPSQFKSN
Briefly: Inhibition of human recombinant NEU3 expressed in Escherichia coli pre-incubated for 10 mins before addition of followed by the addition of MUNANA substrate.

`C#CCCC(=O)N[C@@H]1[C@@H](O)[C@@H](F)[C@](F)(C(=O)O)O[C@H]1[C@H](O)[C@H](O)CO`: the IC50 (as a rule, the point on the concentration scale where inhibition reaches its midpoint) is 5 µM.
